We go through three compounds from publication PMC4911292 (Clinical cancer research : an official journal of the …, 2016).

On the set-up of data set [1]: species or system human. As to conditions: in vivo.
Data set [2] relates to pretreated metastatic breast cancer. To be noted: single agent; cited from earlier work.
The nature of data set [3]: Veliparib pharmacokinetics in plasma and urine. The class given is in vivo, human.
The test system of data set [4] is advanced triple-negative breast cancer and/or BRCA mutation-associated breast cancer. Briefly: Preliminary efficacy. In kind it is in vivo, human. As to conditions: veliparib with cisplatin and vinorelbine.
The subject of data set [5] is patients with recurrent and/or metastatic TNBC and/or BRCA mutation-associated breast cancer.
The subject of a further data set is CYP enzymes. To be noted: cited from earlier work.
The next data set has as its system P-glycoprotein (P-gp). As to conditions: cited from earlier work.
Data set [6] concerns germline BRCA mutation-associated cancer. As to conditions: monotherapy throughout a 28-day cycle; cited from earlier work.
The test system of the next data set is PARP. As to conditions: at lower doses; cited from earlier work.
The conditions of data set [7]: cited from earlier work.
Setting [8] is: germline BRCA1 and BRCA2 wild-type, n=26.
[9] abbreviates: germline BRCA1 or BRCA2 mutation positive, n=14.
Where [10] appears, read: N=50, veliparib with cisplatin and vinorelbine, any time during study.
The mark [11] stands for this setting: veliparib monotherapy, 23 patients.
Where [12] appears, read: veliparib with cisplatin and vinorelbine, N=50.

`N.N.[Cl][Pt][Cl]` [cisplatin]: in [1], the “Median C4/C1 ratio for ultrafilterable platinum AUC0-24” value was determined as 0.98 and the “Median C4/C1 ratio for ultrafilterable platinum Cmax” value amounted to 0.99. In addition, the Response rate entry in [2] is reported as “less than 10%”.
For the compound `C[C@]1(c2nc3c(C(N)=O)cccc3[nH]2)CCCN1` [veliparib], in data set [3] (cycle 1, N=20), the “Proportion of the first dose excreted in the urine over 12 hours (median)” value stood at 61.7%. Besides, the “Proportion of the first dose excreted in the urine over 12 hours (median)” value in data set [3] (cycle 4, N=20) amounted to 66.7%. Also, in data set [3] (cycle 4 day 1 vs cycle 1 day 0, N=32, range 0.36-2.00), the “Median C4/C1 ratio of Cmax” value worked out at 0.85. The “Median C4/C1 ratio of AUC0-6” value in data set [3] (cycle 4 day 1 vs cycle 1 day 0, N=32, range 0.44-1.64) is given as 0.82. Further, in data set [4] (48 patients), the “Best overall response: complete response” value stood at 4%, the “Progressive disease as best response or not assessed due to disease or toxicity” value was determined as 21% and the “Stable disease as best response” value came to 44%. Besides, in [4] (48 patients, 95% CI 23%-50%), the “Overall response rate (CR+PR, confirmed)” value is on record as 35%. The “Response (CR+PR)” value in [4] (BRCA mutation present) is 57%. Also, the Median progression-free survival in data set [4] (all 50 patients, 95% CI 4.1-6.7) is 5.5 months. This compound also yielded a Median overall survival in [4] (all patients, 95% CI 8.1-20.7) of 9.6 months. Moreover, in data set [4] (setting [8]), the “Best overall response: Complete response (CR)” value (“Best overall response … (CR)” below) was 1 (4%) n(%), the “Best overall response: Partial response (PR)” value (from here on “Best overall response … (PR)”) is 7 (27%) n(%) and the “Best overall response: Progressive disease (PD)” value (“Best overall response … (PD)” below) is recorded as 6 (23%) n(%). Moreover, in [4] (setting [9]), the “Best overall response … (CR)” value is on record as 1 (7%) n(%), the “Best overall response … (PR)” value is 7 (50%) n(%), the “Best overall response … (PD)” value is recorded as 1 (7%) n(%) and the “Clinical benefit (PFS6) rate” value was 10 (71%) n(%). For the same compound, in [4] (germline BRCA mutation), the “Median OS” value is 22.6 months and the “Median PFS” value worked out at 9.2 months. Also, in [4] (germline BRCA mutation absent), the “6-month progression-free survival (PFS6)” value turned out to be 30%. In addition, the “6-month progression-free survival (PFS6)” value in data set [4] (germline BRCA mutation present) is on record as 71%. Further, the “Median PFS” value in data set [4] (germline BRCA wild-type) amounted to 4.2 months. In addition, in data set [4] (total, n=48), the “Best overall response … (CR)” value is reported as 2 (4%) n(%), the “Best overall response … (PR)” value is given as 15 (31%) n(%) and the “Best overall response … (PD)” value is on record as 10 (21%) n(%). Moreover, in data set [4] (unknown mutation status, n=8), the “Best overall response … (PR)” value is reported as 1(12%) n(%), the “Best overall response … (PD)” value is listed as 3 (38%) n(%) and the “Clinical benefit (PFS6) rate” value is 2 (25%) n(%). Besides, in [4] (unknown mutational status), the “Median OS” value was 6.2 months and the “Median PFS” value is 4.0 months. Also, the Dose limiting toxicity entry in data set [5] (40 mg dose level, with cisplatin and vinorelbine, one patient, bone marrow involvement of breast cancer) is on record as “grade 4 thrombocytopenia”. For the same compound, in [5] (setting [10]), the “Anemia, All grades” value is 32 (64%) N (%); the “Anorexia, All grades” value is 17 (34%) N (%); the “Dehydration, All grades” value is given as 17 (34%) N (%); the “Dyspepsia, All grades” value is 11 (22%) N (%). In addition, in data set [5] (setting [10]), the “Fatigue, All grades” value is recorded as 40 (80%) N (%); the “Hypokalemia, All grades” value was 13 (26%) N (%); the “Nausea, All grades” value was 43 (86%) N (%); the “Neutrophil count decreased, All grades” value was 31 (62%) N (%). Further, in data set [5] (setting [10]), the “Peripheral sensory neuropathy, All grades” value is given as 21 (42%) N (%); the “Platelet count decreased, All grades” value is recorded as 33 (66%) N (%); the “Tinnitus, All grades” value is recorded as 26 (52%) N (%); the “Vomiting, All grades” value is 21 (42%) N (%). In addition, the “Recommended phase II dose (RP2D)” value in [5] (in combination with cisplatin and vinorelbine) is recorded as 300 mg BID. Besides, the “Patients reporting AEs on monotherapy” value in data set [5] (veliparib monotherapy) is “Six of 23”. Moreover, in data set [5] (setting [11]), the “Dyspepsia, any grade” value came to 17%; the “Nausea, any grade” value was determined as 17%; the “Vomiting, any grade” value was found to be 17%. Also, in data set [5] (setting [12]), the “Grade 3/4 anemia” value is 30%, the “Grade 3/4 neutropenia” value was 36% and the “Grade 3/4 thrombocytopenia” value came out at 12%. Moreover, in the data set with CYP enzymes, the “Inhibition or induction of major CYP enzymes” value is on record as “does not appear to inhibit or induce the activity of major CYP enzymes”, the “Share of oral clearance accounted for by CYP2D6” value is listed as ~ 18% and the “Share of oral clearance accounted for by additional liver metabolism” value is given as 10%. Also, in the data set on P-glycoprotein (P-gp), the “Inhibition or induction of P-gp” value is given as “does not appear to inhibit or induce P-gp” and the P-gp substrate status entry was “weak P-glycoprotein (P-gp) substrate”. The “Current RP2D as monotherapy” value in [6] was 400 mg BID. The “PARP inhibition by PAR assay” value in the data set on PARP is on record as 90%.
As for `CCC1=C[C@@H]2CN(C1)Cc1c([nH]c3ccccc13)[C@@](C(=O)OC)(c1cc3c(cc1OC)N(C)[C@H]1[C@@](O)(C(=O)OC)[C@H](OC(C)=O)[C@]4(CC)C=CCN5CC[C@]31[C@@H]54)C2` [vinorelbine], in [7], the “Renal excretion, share of the administered dose” value is given as “approximately 10%”.
